Results from US12473250B2, “Molecular design of new antibiotics and antibiotic adjuvants against MCR strains” (priority 2019, dated 2025).

Tested on: various pathogens
Assay: organism not typed
Assay type: cell-based
Method in brief: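 Broth microdilution MIC per CLSI: each agent alone and LC compound plus antibiotic (e.g. colistin) combined in equal amounts, serially diluted 2-fold at fixed synergy concentration.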

Colistin
FOLD CHANGES [Absorbance (abs; OD 600 nm)] No Treatment [Bacteria alone]: Colistin 0.5 μg (E. Coli CRE 19211): 1.17 | FOLD CHANGES [Absorbance (abs; OD 600 nm)] No Treatment [Bacteria alone]: MIC Colistin (E. Coli CRE 19211): 20.56 | MIC (E. Coli CRE 19211): 1.56 µg/mL | FOLD CHANGES [Absorbance (abs; OD 600 nm)] No Treatment [Bacteria alone]: Colistin 0.5 μg (E. Coli CRE 34685): 1.49 | FOLD CHANGES [Absorbance (abs; OD 600 nm)] No Treatment [Bacteria alone]: MIC Colistin (E. Coli CRE 34685): 22.63 | MIC (E. Coli CRE 34685): 0.78 µg/mL | FOLD CHANGES [Absorbance (abs; OD 600 nm)] No Treatment [Bacteria alone]: Colistin 0.5 μg (E. Coli DB 16027R): 1.23 | FOLD CHANGES [Absorbance (abs; OD 600 nm)] No Treatment [Bacteria alone]: MIC Colistin (E. Coli DB 16027R): 14.89 | MIC (E. Coli DB 16027R): 0.78 µg/mL | FOLD CHANGES [Absorbance (abs; OD 600 nm)] No Treatment [Bacteria alone]: Colistin 0.5 μg (KLPN ATCC 4352): 1.81 | FOLD CHANGES [Absorbance (abs; OD 600 nm)] No Treatment [Bacteria alone]: MIC Colistin (KLPN ATCC 4352): 3.54 | MIC (KLPN ATCC 4352): 0.78 µg/mL | FOLD CHANGES [Absorbance (abs; OD 600 nm)] No Treatment [Bacteria alone]: Colistin 0.5 μg (KLPN ATCC 10031): 1.25 | FOLD CHANGES [Absorbance (abs; OD 600 nm)] No Treatment [Bacteria alone]: MIC Colistin (KLPN ATCC 10031): 10.11 | MIC (KLPN ATCC 10031): 1.56 µg/mL | FOLD CHANGES [Absorbance (abs; OD 600 nm)] No Treatment [Bacteria alone]: Colistin 0.5 μg (KLPN ATCC 27736): 1.21 | FOLD CHANGES [Absorbance (abs; OD 600 nm)] No Treatment [Bacteria alone]: MIC Colistin (KLPN ATCC 27736): 9.67 | MIC (KLPN ATCC 27736): 0.78 µg/mL | FOLD CHANGES [Absorbance (abs; OD 600 nm)] No Treatment [Bacteria alone]: Colistin 0.5 μg (KLPN ATCC 35657): 1.57 | FOLD CHANGES [Absorbance (abs; OD 600 nm)] No Treatment [Bacteria alone]: MIC Colistin (KLPN ATCC 35657): 13.49 | MIC (KLPN ATCC 35657): 1.56 µg/mL | FOLD CHANGES [Absorbance (abs; OD 600 nm)] No Treatment [Bacteria alone]: Colistin 0.5 μg (KLPN ATCC 700603): 1.11 | FOLD CHANGES [Absorbance (abs; OD 600 nm)] No Treatment [Bacteria alone]: MIC Colistin (KLPN ATCC 700603): 9.64 | MIC (KLPN ATCC 700603): 1.56 µg/mL | FOLD CHANGES [Absorbance (abs; OD 600 nm)] No Treatment [Bacteria alone]: Colistin 0.5 μg (KLPN CRE 7955): 1.64 | FOLD CHANGES [Absorbance (abs; OD 600 nm)] No Treatment [Bacteria alone]: MIC Colistin (KLPN CRE 7955): 10.28 | MIC (KLPN CRE 7955): 1.56 µg/mL | FOLD CHANGES [Absorbance (abs; OD 600 nm)] No Treatment [Bacteria alone]: Colistin 0.5 μg (KLPN CRE 15588): 2.50 | FOLD CHANGES [Absorbance (abs; OD 600 nm)] No Treatment [Bacteria alone]: MIC Colistin (KLPN CRE 15588): 7.39 | MIC (KLPN CRE 15588): 0.78 µg/mL | FOLD CHANGES [Absorbance (abs; OD 600 nm)] No Treatment [Bacteria alone]: Colistin 0.5 μg (KLPN CRE 16260): 1.06 | MIC (KLPN CRE 16260): >50 µg/mL | FOLD CHANGES [Absorbance (abs; OD 600 nm)] No Treatment [Bacteria alone]: Colistin 0.5 μg (KLPN CRE 27025): 5.24 | FOLD CHANGES [Absorbance (abs; OD 600 nm)] No Treatment [Bacteria alone]: MIC Colistin (KLPN CRE 27025): 11.84 | MIC (KLPN CRE 27025): 0.78 µg/mL | FOLD CHANGES [Absorbance (abs; OD 600 nm)] No Treatment [Bacteria alone]: Colistin 0.5 μg (KLPN CRE 55301): 1.09 | FOLD CHANGES [Absorbance (abs; OD 600 nm)] No Treatment [Bacteria alone]: MIC Colistin (KLPN CRE 55301): 9.00 | MIC (KLPN CRE 55301): 0.78 µg/mL | FOLD CHANGES [Absorbance (abs; OD 600 nm)] No Treatment [Bacteria alone]: Colistin 0.5 μg (PAE ATCC 9027): 0.98 | FOLD CHANGES [Absorbance (abs; OD 600 nm)] No Treatment [Bacteria alone]: MIC Colistin (PAE ATCC 9027): 8.80 | MIC (PAE ATCC 9027): 1.56 µg/mL | FOLD CHANGES [Absorbance (abs; OD 600 nm)] No Treatment [Bacteria alone]: Colistin 0.5 μg (PAE ATCC 9721): 1.01 | FOLD CHANGES [Absorbance (abs; OD 600 nm)] No Treatment [Bacteria alone]: MIC Colistin (PAE ATCC 9721): 5.80 | MIC (PAE ATCC 9721): 1.56 µg/mL | FOLD CHANGES [Absorbance (abs; OD 600 nm)] No Treatment [Bacteria alone]: Colistin 0.5 μg (PAE ATCC 15442): 1.03 | FOLD CHANGES [Absorbance (abs; OD 600 nm)] No Treatment [Bacteria alone]: MIC Colistin (PAE ATCC 15442): 14.00 | MIC (PAE ATCC 15442): 1.56 µg/mL | FOLD CHANGES [Absorbance (abs; OD 600 nm)] No Treatment [Bacteria alone]: Colistin 0.5 μg (PAE ATCC 27853): 0.96 | FOLD CHANGES [Absorbance (abs; OD 600 nm)] No Treatment [Bacteria alone]: MIC Colistin (PAE ATCC 27853): 8.35 | MIC (PAE ATCC 27853): 0.78 µg/mL | FOLD CHANGES [Absorbance (abs; OD 600 nm)] No Treatment [Bacteria alone]: Colistin 0.5 μg (PAE ATCC BAA-1744): 1.11 | FOLD CHANGES [Absorbance (abs; OD 600 nm)] No Treatment [Bacteria alone]: MIC Colistin (PAE ATCC BAA-1744): 6.81 | MIC (PAE ATCC BAA-1744): 1.56 µg/mL | FOLD CHANGES [Absorbance (abs; OD 600 nm)] No Treatment [Bacteria alone]: Colistin 0.5 μg (PAE DM 4150): 1.02 | FOLD CHANGES [Absorbance (abs; OD 600 nm)] No Treatment [Bacteria alone]: MIC Colistin (PAE DM 4150): 10.34 | MIC (PAE DM 4150): 3.125 µg/mL | FOLD CHANGES [Absorbance (abs; OD 600 nm)] No Treatment [Bacteria alone]: Colistin 0.5 μg (PAE DM 23155): 1.30 | FOLD CHANGES [Absorbance (abs; OD 600 nm)] No Treatment [Bacteria alone]: MIC Colistin (PAE DM 23155): 7.00 | MIC (PAE DM 23155): 1.56 µg/mL | FOLD CHANGES [Absorbance (abs; OD 600 nm)] No Treatment [Bacteria alone]: Colistin 0.5 μg (PAE DM 23257): 1.02 | FOLD CHANGES [Absorbance (abs; OD 600 nm)] No Treatment [Bacteria alone]: MIC Colistin (PAE DM 23257): 7.71 | MIC (PAE DM 23257): 1.56 µg/mL | FOLD CHANGES [Absorbance (abs; OD 600 nm)] No Treatment [Bacteria alone]: Colistin 0.5 μg (PAE DM 23376): 0.93 | FOLD CHANGES [Absorbance (abs; OD 600 nm)] No Treatment [Bacteria alone]: MIC Colistin (PAE DM 23376): 8.00 | MIC (PAE DM 23376): 1.56 µg/mL | FOLD CHANGES [Absorbance (abs; OD 600 nm)] No Treatment [Bacteria alone]: Colistin 0.5 μg (PAE DR 4877): 1.30 | FOLD CHANGES [Absorbance (abs; OD 600 nm)] No Treatment [Bacteria alone]: MIC Colistin (PAE DR 4877): 12.00 | MIC (PAE DR 4877): 1.56 µg/mL | FOLD CHANGES [Absorbance (abs; OD 600 nm)] No Treatment [Bacteria alone]: Colistin 0.5 μg (PAE DR 5790): 1.06 | FOLD CHANGES [Absorbance (abs; OD 600 nm)] No Treatment [Bacteria alone]: MIC Colistin (PAE DR 5790): 10.25 | MIC (PAE DR 5790): 0.78 µg/mL | FOLD CHANGES [Absorbance (abs; OD 600 nm)] No Treatment [Bacteria alone]: Colistin 0.5 μg (PAE DU 14476): 0.90 | FOLD CHANGES [Absorbance (abs; OD 600 nm)] No Treatment [Bacteria alone]: MIC Colistin (PAE DU 14476): 7.21 | MIC (PAE DU 14476): 1.56 µg/mL
